Measured values as given in US20060235076A1, “Medicinal composition for treating infection with drug-resistant staphylococcus aureus” (priority 2003, published 2006).
In brackets after ≈: the same amount, converted by molar mass. Where two headings read alike, the source gives them in different places.

Tests used:
[1] = system: MRSA COL and MRSA Strain No. 5; test: Potentiating effect of various gallates for antibacterial activity of oxacillin (MIC by broth microdilution method and FIC); format: cell-based, Staphylococcus aureus; details: for FIC value: combination with oxacillin
Protocol: According to the broth microdilution method defined by Japan Society of Chemotherapy, MIC was determined. CAMHA was prepared by adding 50 mg/l of Ca-ion, 25 mg/l of Mg-ion, and 2% of NaCl to MHB (Mueller-Hinton Broth), and it was used as a medium for use in the measurement of sensitivity. In 96-well microplates 100 μl of the medium for use in the measurement of sensitivity containing drugs was dispensed. The bacterial liquid was incubated at 37° C. overnight, diluted with saline and added to the plate so that the final concentration of the bacteria was 5×10^5 CFU/well. […] FIC (fractional inhibitory concentration) was calculated from the result and the potency of the effect of the combination use was evaluated.

MRSA and MSSA = test: Antibacterial activity of gallic acid, various gallates and multivalent phenol derivatives alone (agar plate dilution method, MIC); format: cell-based, Staphylococcus aureus; details: Staphylococcus aureus
Protocol: According to the agar plate dilution method defined by Japan Society of Chemotherapy, MIC (Minimum inhibitory concentration) was determined. CAMHA was prepared by adding 50 mg/l of Ca-ion, 25 mg/l of Mg-ion, and 2% of NaCl to Mueller-Hinton II Agar (MHA), and it was used as a medium for use in the measurement of sensitivity. The bacterial liquid was incubated at 37° C. overnight and diluted to 10^6 CFU/ml with saline.
MIC for gallic acid, various gallates and multivalent phenol derivatives alone with MRSA and MSSA were determined as described in experiment 2.

## CCCOC(=O)c1cc(O)c(O)c(O)c1 [Propyl gallate, n-propyl gallate]
[1]; MRSA COL
  FIC value: 0.258
[1]; MRSA Strain No. 5
  FIC value: 0.258
MRSA and MSSA; ATCC 6538 / MRSA / MSSA, ATCC6538, read-out: MIC alone
  MIC: 125 µg/mL (≈ 589 µM)
MRSA and MSSA; COL, read-out: MIC alone
  MIC: 125 µg/mL (≈ 589 µM)
MRSA and MSSA; MRSA #1, read-out: MIC alone
  MIC: 125 µg/mL (≈ 589 µM)
MRSA and MSSA; MRSA #2, read-out: MIC alone
  MIC: 62.5 µg/mL (≈ 295 µM)
MRSA and MSSA; MRSA #3, read-out: MIC alone
  MIC: 125 µg/mL (≈ 589 µM)
MRSA and MSSA; MRSA #4, read-out: MIC alone
  MIC: 125 µg/mL (≈ 589 µM)
MRSA and MSSA; MRSA #5, read-out: MIC alone
  MIC: 125 µg/mL (≈ 589 µM)
MRSA and MSSA; MRSA #6, read-out: MIC alone
  MIC: 62.5 µg/mL (≈ 295 µM)
MRSA and MSSA; MRSA #7, read-out: MIC alone
  MIC: 125 µg/mL (≈ 589 µM)
MRSA and MSSA; MRSA #8, read-out: MIC alone
  MIC: 125 µg/mL (≈ 589 µM)
MRSA and MSSA; MRSA #9, read-out: MIC alone
  MIC: 62.5 µg/mL (≈ 295 µM)
MRSA and MSSA; MRSA #10, read-out: MIC alone
  MIC: 62.5 µg/mL (≈ 295 µM)
MRSA and MSSA; MRSA #12, read-out: MIC alone
  MIC: 125 µg/mL (≈ 589 µM)
MRSA and MSSA; MRSA #16, read-out: MIC alone
  MIC: 125 µg/mL (≈ 589 µM)
MRSA and MSSA; MRSA #17, read-out: MIC alone
  MIC: 62.5 µg/mL (≈ 295 µM)
MRSA and MSSA; MRSA #18, read-out: MIC alone
  MIC: 62.5 µg/mL (≈ 295 µM)
MRSA and MSSA; MRSA #20, read-out: MIC alone
  MIC: 125 µg/mL (≈ 589 µM)
MRSA and MSSA; MRSA #21, read-out: MIC alone
  MIC: 125 µg/mL (≈ 589 µM)
MRSA and MSSA; MRSA #22, read-out: MIC alone
  MIC: 125 µg/mL (≈ 589 µM)
MRSA and MSSA; MRSA #24, read-out: MIC alone
  MIC: 125 µg/mL (≈ 589 µM)
MRSA and MSSA; MSSA #1003, read-out: MIC alone
  MIC: 125 µg/mL (≈ 589 µM)
MRSA and MSSA; MSSA #1010, read-out: MIC alone
  MIC: 125 µg/mL (≈ 589 µM)
MRSA and MSSA; MSSA #1020, read-out: MIC alone
  MIC: 125 µg/mL (≈ 589 µM)
MRSA and MSSA; MSSA #1023, read-out: MIC alone
  MIC: 62.5 µg/mL (≈ 295 µM)
MRSA and MSSA; MSSA #1029, read-out: MIC alone
  MIC: 62.5 µg/mL (≈ 295 µM)
MRSA and MSSA; MSSA #1032, read-out: MIC alone
  MIC: 125 µg/mL (≈ 589 µM)
MRSA and MSSA; compound alone, over all strains of Table 3-1, read-out: MIC50
  MIC50: 125 µg/mL (≈ 589 µM)

## CCCCCCCCCCCOC(=O)c1cc(O)c(O)c(O)c1 [Undecyl gallate, n-undecyl gallate]
[1]; COL Strain and Strain No. 5
  antibacterial activity when used alone: most potent
[1]; MRSA COL
  FIC value: 0.313
[1]; MRSA Strain No. 5
  FIC value: 0.251
MRSA and MSSA
  MIC50: 31.3 µg/mL (≈ 96.5 µM)
MRSA and MSSA; ATCC 6538 / MRSA / MSSA
  MIC: 31.3 µg/mL (≈ 96.5 µM)
MRSA and MSSA; COL, compound alone, read-out: MIC
  MIC: 31.3 µg/mL (≈ 96.5 µM)
MRSA and MSSA; MRSA #1, compound alone, read-out: MIC
  MIC: 31.3 µg/mL (≈ 96.5 µM)
MRSA and MSSA; MRSA #2, compound alone, read-out: MIC
  MIC: 31.3 µg/mL (≈ 96.5 µM)
MRSA and MSSA; MRSA #3, compound alone, read-out: MIC
  MIC: 31.3 µg/mL (≈ 96.5 µM)
MRSA and MSSA; MRSA #4, compound alone, read-out: MIC
  MIC: 31.3 µg/mL (≈ 96.5 µM)
MRSA and MSSA; MRSA #5, compound alone, read-out: MIC
  MIC: 31.3 µg/mL (≈ 96.5 µM)
MRSA and MSSA; MRSA #6, compound alone, read-out: MIC
  MIC: 31.3 µg/mL (≈ 96.5 µM)
MRSA and MSSA; MRSA #7, compound alone, read-out: MIC
  MIC: 31.3 µg/mL (≈ 96.5 µM)
MRSA and MSSA; MRSA #8, compound alone, read-out: MIC
  MIC: 31.3 µg/mL (≈ 96.5 µM)
MRSA and MSSA; MRSA #9, compound alone, read-out: MIC
  MIC: 31.3 µg/mL (≈ 96.5 µM)
MRSA and MSSA; MRSA #10, compound alone, read-out: MIC
  MIC: 31.3 µg/mL (≈ 96.5 µM)
MRSA and MSSA; MRSA #12, compound alone, read-out: MIC
  MIC: 31.3 µg/mL (≈ 96.5 µM)
MRSA and MSSA; MRSA #16, compound alone, read-out: MIC
  MIC: 31.3 µg/mL (≈ 96.5 µM)
MRSA and MSSA; MRSA #17, compound alone, read-out: MIC
  MIC: 31.3 µg/mL (≈ 96.5 µM)
MRSA and MSSA; MRSA #18, compound alone, read-out: MIC
  MIC: 31.3 µg/mL (≈ 96.5 µM)
MRSA and MSSA; MRSA #20, compound alone, read-out: MIC
  MIC: 31.3 µg/mL (≈ 96.5 µM)
MRSA and MSSA; MRSA #21, compound alone, read-out: MIC
  MIC: 31.3 µg/mL (≈ 96.5 µM)
MRSA and MSSA; MRSA #22, compound alone, read-out: MIC
  MIC: 31.3 µg/mL (≈ 96.5 µM)
MRSA and MSSA; MRSA #24, compound alone, read-out: MIC
  MIC: 31.3 µg/mL (≈ 96.5 µM)
MRSA and MSSA; MSSA #1003, compound alone, read-out: MIC
  MIC: 31.3 µg/mL (≈ 96.5 µM)
MRSA and MSSA; MSSA #1010, compound alone, read-out: MIC
  MIC: 31.3 µg/mL (≈ 96.5 µM)
MRSA and MSSA; MSSA #1020, compound alone, read-out: MIC
  MIC: 31.3 µg/mL (≈ 96.5 µM)
MRSA and MSSA; MSSA #1023, compound alone, read-out: MIC
  MIC: 31.3 µg/mL (≈ 96.5 µM)
MRSA and MSSA; MSSA #1029, compound alone, read-out: MIC
  MIC: 31.3 µg/mL (≈ 96.5 µM)
MRSA and MSSA; MSSA #1032, compound alone, read-out: MIC
  MIC: 31.3 µg/mL (≈ 96.5 µM)
